Consider 20 compounds from US8357717B2, “Spiro group-containing amide compounds having bradykinin 1 receptor (B1R) activity” (Gruenenthal GmbH, priority 2009, dated 2013).

The target in assay [1] is T1, B1R receptor of the rat (rB1R) (Rattus norvegicus, UniProt P97583).
T1 construct: expressed in transfected cells; host or cells: CHO K1 cells, stably transfected
T1 sequence (P97583 1-337): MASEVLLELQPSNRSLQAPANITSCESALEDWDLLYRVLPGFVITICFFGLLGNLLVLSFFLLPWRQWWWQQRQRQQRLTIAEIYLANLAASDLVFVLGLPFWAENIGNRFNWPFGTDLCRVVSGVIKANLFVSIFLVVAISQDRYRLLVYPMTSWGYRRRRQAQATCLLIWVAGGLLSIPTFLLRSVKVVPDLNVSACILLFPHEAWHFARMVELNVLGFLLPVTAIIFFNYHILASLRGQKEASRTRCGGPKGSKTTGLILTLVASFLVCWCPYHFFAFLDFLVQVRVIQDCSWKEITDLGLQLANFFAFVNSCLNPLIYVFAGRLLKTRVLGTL
As to the kind of experiment: FLIPR Ca2+ functional study on bradykinin receptor 1, rB1R cells (CHO K1). The class given is cell-based. The settings on record: 10 μM test substance; CHO K1 cells with rat B1R; agonist Des-Arg9-bradykinin at EC80; read-out: B1R antagonism, rat [10 μM] % inhibition. The method in brief:
(§1)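 Stably transfected CHO K1 cells loaded with Fluo-4; FLIPR Ca2+ fluorescence (ex 488/em 540 nm, peak counts). Compounds (10 μM, or concentration series for IC50) preincubated 10–20 min, then EC80 agonist added (human: Lys-Des-Arg9-bradykinin; rat: Des-Arg9-bradykinin); % inhibition versus maximum achievable, n=2–3, N≥2.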

Assay [2] concerns the target T2, human B1R receptor (hB1R) (Homo sapiens, UniProt P46663).
T2 construct: expressed in transfected cells; host or cells: CHO K1 cells, stably transfected
T2 sequence (P46663 1-353): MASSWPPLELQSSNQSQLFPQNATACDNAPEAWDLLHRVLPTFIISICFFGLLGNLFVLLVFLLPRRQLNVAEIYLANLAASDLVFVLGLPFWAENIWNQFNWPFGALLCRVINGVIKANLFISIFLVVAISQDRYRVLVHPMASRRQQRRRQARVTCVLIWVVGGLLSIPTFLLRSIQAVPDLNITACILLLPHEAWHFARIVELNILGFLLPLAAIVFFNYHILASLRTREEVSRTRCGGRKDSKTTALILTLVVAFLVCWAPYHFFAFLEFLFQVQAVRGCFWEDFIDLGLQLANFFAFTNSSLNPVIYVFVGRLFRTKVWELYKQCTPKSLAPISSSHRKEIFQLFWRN
Nature of the assay: FLIPR Ca2+ functional study on bradykinin receptor 1, hB1R cells (CHO K1). The assay is classed as cell-based. To be noted: CHO-K1, 10 μM test substance; CHO K1 cells with human B1R; agonist Lys-Des-Arg9-bradykinin at EC80; read-out: B1R antagonism, human [10 μM] % inhibition. The method, boiled down:
as §1

The term inhibition denotes the relative decrease from the control value, in per cent.

On to `COc1cc(C)c(S(=O)(=O)N2CCCc3ccc(CC(=O)N4CCC5(CC4)CCN(c4ccncc4)CC5)cc32)c(C)c1` [Compound G-25, 2-(1-(4-Methoxy-2,6-dimethylphenylsulfonyl)-1,2,3,4-tetrahydroquinolin-7-yl)-1-(9-(pyridin-4-yl)-3,9-diazaspiro[5.5]undecan-3-yl)ethanone], for which the results for the inhibition at 10 µM in assay [1] and in assay [2] were 98% and 100%, respectively.
For `O=C(c1ccc2c(c1)CN(C(=O)c1cc3ccccc3s1)CC2)N1CCC2(CC1)CCN(c1ccncc1)CC2` [Compound G-59, Benzo[b]thiophen-2-yl(7-(9-(pyridin-4-yl)-3,9-diazaspiro[5.5]undecane-3-carbonyl)-3,4-dihydroisoquinolin-2(1H)-yl)methanone], in that order: 95% and 86%.
For `O=C(Cc1ccc2c(c1)N(S(=O)(=O)c1ccccc1C(F)(F)F)CCC2)N1CCC2(CCN(c3ccncc3)CC2)C1` [Compound G-57, 1-(8-(Pyridin-4-yl)-2,8-diazaspiro[4.5]decan-2-yl)-2-(1-(2-(trifluoromethyl)phenylsulfonyl)-1,2,3,4-tetrahydroquinolin-7-yl)ethanone], the values for the inhibition at 10 µM in assay [1] and in assay [2] were 101% and 100%, respectively.
Consider `O=C(Cc1ccc2c(c1)N(S(=O)(=O)c1cccc3ccccc13)CCC2)N1CCC2(CC1)CCN(c1ccncc1)CC2` [Compound G-17, 2-(1-(Naphthalin-1-ylsulfonyl)-1,2,3,4-tetrahydroquinolin-7-yl)-1-(9-(pyridin-4-yl)-3,9-diazaspiro[5.5]undecan-3-yl)ethanone], for which the values for the inhibition at 10 µM in assay [1] and in assay [2] were 89% and 97%, respectively.
For `O=C(Cc1ccc2c(c1)N(C(=O)c1ccccc1Cl)CCC2)N1CCC2(CC1)CCN(c1ccncc1)CC2` [Compound G-64, 2-[1-(2-Chloro-benzoyl)-1,2,3,4-tetrahydro-quinolin-7-yl]-1-(9-pyridin-4-yl-3,9-diazaspiro[5.5]undecan-3-yl)-ethanone], the inhibition at 10 µM is 96% in assay [1] and 59% in assay [2].
For `COc1cc(C)c(S(=O)(=O)N2CCCc3ccc(CC(=O)N4CCC5(CC4)CCN(c4ccncc4)C5)cc32)c(C)c1` [Compound G-09, 2-(1-(4-Methoxy-2,6-dimethylphenylsulfonyl)-1,2,3,4-tetrahydroquinolin-7-yl)-1-(2-(pyridin-4-yl)-2,8-diazaspiro[4.5]decan-8-yl)ethanone], the inhibition at 10 µM in assay [1] and in assay [2] was 96% each time.
Turning to `COc1cc(C)c(S(=O)(=O)N2CCCc3ccc(CC(=O)N4CCC5(CCC(N6CC(F)(F)C6)CC5)CC4)cc32)c(C)c1` [Compound G-34, 1-(9-(3,3-Difluoroazetidin-1-yl)-3-azaspiro[5.5]undecan-3-yl)-2-(1-(4-methoxy-2,6-dimethylphenylsulfonyl)-1,2,3,4-tetrahydroquinolin-7-yl)ethanone], the inhibition at 10 µM in assay [1] came out at 86%; in assay [2], 18%.
The corresponding values for `O=C(c1ccccc1Cl)N1CCc2onc(C(=O)N3CCC4(CC3)CCN(c3ccncc3)CC4)c2C1` [Compound G-13, (5-(2-Chlorobenzoyl)-4,5,6,7-tetrahydroisoxazolo[4,5-c]pyridin-3-yl)(9-(pyridin-4-yl)-3,9-diazaspiro[5.5]undecan-3-yl)methanone] are 94% and 100%.
Take `COc1ccc2c(Cl)c(C(=O)N3CCc4ccc(C(=O)N5CCC6(CC5)CCN(c5ccncc5)CC6)cc4C3)sc2c1` [Compound G-61, (3-Chloro-6-methoxybenzo[b]thiophen-2-yl)(7-(9-(pyridin-4-yl)-3,9-diazaspiro[5.5]undecane-3-carbonyl)-3,4-dihydroisoquinolin-2(1H)-yl)methanone]: the inhibition at 10 µM in assay [1] was found to be 91%; in assay [2] it was 77%.
For `O=C(Cc1ccc2c(c1)N(S(=O)(=O)c1cccc3ccccc13)CCC2)N1CCC2(CCN(c3ccncc3)CC2)C1` [Compound G-52, 2-(1-(Naphthalin-1-ylsulfonyl)-1,2,3,4-tetrahydroquinolin-7-yl)-1-(8-(pyridin-4-yl)-2,8-diazaspiro[4.5]decan-2-yl)ethanone], in that order: 106% and 98%.
For `COc1cc(C)c(S(=O)(=O)N2CCCc3ccc(CC(=O)N4CCC5(CCC(Oc6ccncc6)CC5)CC4)cc32)c(C)c1` [Compound G-30, 2-(1-(4-Methoxy-2,6-dimethylphenylsulfonyl)-1,2,3,4-tetrahydroquinolin-7-yl)-1-(9-(pyridin-4-yloxy)-3-azaspiro[5.5]undecan-3-yl)ethanone], in that order: 98% and 46%.
For the compound `Cc1cccc(Cl)c1S(=O)(=O)N1CCCc2ccc(CC(=O)N3CCC4(CCN(c5ccncc5)CC4)C3)cc21` [Compound G-51, 2-(1-(2-Chloro-6-methylphenylsulfonyl)-1,2,3,4-tetrahydroquinolin-7-yl)-1-(8-(pyridin-4-yl)-2,8-diazaspiro[4.5]decan-2-yl)ethanone], the values for the inhibition at 10 µM in assay [1] and in assay [2] were 106% and 100%, respectively.
The corresponding values for `COc1cc(C)c(S(=O)(=O)N2CCc3cccc(C(=O)N4CCC5(CC4)CCN(c4ccncc4)CC5)c3C2)c(C)c1` [Compound G-36, (2-(4-Methoxy-2,6-dimethylphenylsulfonyl)-1,2,3,4-tetrahydroisoquinolin-8-yl)(9-(pyridin-4-yl)-3,9-diazaspiro[5.5]undecan-3-yl)methanone] are 99% and 99%.
Consider `COc1cc(C)c(S(=O)(=O)N2CCCc3ccc(CC(=O)N4CCC5(CCN(c6ccncc6)C5)C4)cc32)c(C)c1` (stereo not shown) [Compound G-12, 2-(1-(4-Methoxy-2,6-dimethylphenylsulfonyl)-1,2,3,4-tetrahydroquinolin-7-yl)-1-(7-(pyridin-4-yl)-2,7-diazaspiro[4.4]nonan-2-yl)ethanone], for which the inhibition at 10 µM in assay [1] came to 102%; in assay [2], 100%.
For `O=C(c1ccc2c(c1)CN(C(=O)c1cc3c(s1)CCC3)CC2)N1CCC2(CC1)CCN(c1ccncc1)CC2` [Compound G-60, (5,6-Dihydro-4H-cyclopenta[b]thiophen-2-yl)(7-(9-(pyridin-4-yl)-3,9-diazaspiro[5.5]undecane-3-carbonyl)-3,4-dihydroisoquinolin-2(1H)-yl)methanone], in that order: 91% and 98%.
Take `COc1cc(C)c(S(=O)(=O)N2CCCc3ccc(CC(=O)N4CCC5(CC4)CCN(c4ccncc4)CC5)nc32)c(C)c1` [Compound G-70, 2-[8-[(4-Methoxy-2,6-dimethyl-phenyl)sulfonyl]-5,6,7,8-tetrahydro-[1,8]naphthyridin-2-yl]-1-(9-pyridin-4-yl-3,9-diazaspiro[5.5]undecan-3-yl)-ethanone]: the inhibition at 10 µM in assay [1] came out at 101%; in assay [2], 88%.
For `O=C(c1ccc2c(c1)CN(C(=O)C(c1ccccc1)c1ccccc1)CC2)N1CCC2(CC1)CCN(c1ccncc1)CC2` [Compound G-49, 2,2-Diphenyl-1-(7-(9-(pyridin-4-yl)-3,9-diazaspiro[5.5]undecane-3-carbonyl)-3,4-dihydroisoquinolin-2(1H)-yl)ethanone], in that order: 106% and 99%.
For `COc1cc(C)c(S(=O)(=O)N2CCCc3ccc(CC(=O)N4CCC5(CC4)CC(c4ccncc4)=NO5)cc32)c(C)c1` [Compound G-33, 2-(1-(4-Methoxy-2,6-dimethylphenylsulfonyl)-1,2,3,4-tetrahydroquinolin-7-yl)-1-(3-(pyridin-4-yl)-1-oxa-2,8-diazaspiro[4.5]dec-2-en-8-yl)ethanone], in that order: 73% and 65%.
On to `COc1ccc(S(=O)(=O)N2CCc3ccc(C(=O)N4CCC5(CC4)CCN(c4ccncc4)CC5)cc3C2)c2ccccc12` [Compound G-48, (2-(4-Methoxynaphthalin-1-ylsulfonyl)-1,2,3,4-tetrahydroisoquinolin-7-yl)(9-(pyridin-4-yl)-3,9-diazaspiro[5.5]undecan-3-yl)methanone], for which the inhibition at 10 µM in assay [1] was determined as 95%; in assay [2], 73%.
Consider `Cc1ccc(C(=O)N2CCc3ccc(C(=O)N4CCC5(CC4)CCN(c4ccncc4)CC5)cc3C2)s1` [Compound G-58, (5-Methylthiophen-2-yl)(7-(9-(pyridin-4-yl)-3,9-diazaspiro[5.5]undecane-3-carbonyl)-3,4-dihydroisoquinolin-2(1H)-yl)methanone], for which the inhibition at 10 µM amounted to 91% in assay [1] and 100% in assay [2].
